Measurements reported in patent US20260092061A1, “COMPOUNDS FOR TARGETED PROTEIN DEGRADATION” (Amphista Therapeutics Limited, priority 2022, published 2026).

Biological target: T1, BRD9 (Homo sapiens, UniProt Q9H8M2)
T1 sequence (Q9H8M2 1-597): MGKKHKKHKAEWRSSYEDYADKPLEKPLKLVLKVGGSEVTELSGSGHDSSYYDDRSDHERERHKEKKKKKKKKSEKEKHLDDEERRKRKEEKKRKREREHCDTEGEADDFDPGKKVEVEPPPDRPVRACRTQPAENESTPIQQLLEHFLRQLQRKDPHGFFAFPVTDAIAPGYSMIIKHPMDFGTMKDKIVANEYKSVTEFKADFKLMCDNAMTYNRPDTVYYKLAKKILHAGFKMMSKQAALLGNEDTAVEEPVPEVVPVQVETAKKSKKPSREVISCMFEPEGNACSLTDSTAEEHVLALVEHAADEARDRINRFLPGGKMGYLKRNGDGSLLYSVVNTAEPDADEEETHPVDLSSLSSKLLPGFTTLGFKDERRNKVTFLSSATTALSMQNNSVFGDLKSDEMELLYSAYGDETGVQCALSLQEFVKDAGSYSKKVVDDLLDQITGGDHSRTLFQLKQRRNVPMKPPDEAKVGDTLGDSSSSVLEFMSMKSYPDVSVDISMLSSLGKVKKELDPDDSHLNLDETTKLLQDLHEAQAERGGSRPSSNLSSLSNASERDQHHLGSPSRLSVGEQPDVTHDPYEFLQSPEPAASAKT
Experiment: Degradation of BRD9 (IF), immunofluorescence in MV4-11 cells, 24 hours (Assay Protocol 2)
Format: cell-based
Parameters: A suspension of MV4-11 cells (ATCC CRL-9591) was prepared; host or cells: MV4-11
Conditions: BRD9 degradation; for DC50: Assay protocol 2, read-out: DC50; for Dmax: MV4-11, Assay protocol 2, read-out: Dmax
Method in brief: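 % BRD9 remaining, scaled between DMSO (high) and 100 nM CFT-8634 (low) control wells, derives from mean Alexa 647 contrast in central nuclei by high-content imaging. MV4-11 cells had 24 h compound exposure at 37° C. before PFA fixation, Triton permeabilisation and anti-BRD9 E4Q3F immunostaining.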

DC50 [nM] | Dmax [%] | Compound
1.25 to 10 | > 75 | COc1cc(-c2cn(C)c(=O)c(C)c2C)cc(OC)c1CN1CCN(Cc2ccc3c(c2)[C@H](C(C)C)N(C(=O)/C(C#N)=C/C(C)(C)CF)CC3)C2(CC2)C1 (single isomer, unassigned) [Compound C96, (E/Z)-2-(7-((7-(2,6-dimethoxy-4-(1,4,5-trimethyl-6-oxo-1,6-dihydropyridin-3-yl)benzyl)-4,7-diazaspiro[2.5]octan-4-yl)methyl)-1-isopropyl-1,2,3,4-tetrahydroisoquinoline-2-carbonyl)-5-fluoro 4,4-dimethylpent-2-enenitrile]
< 1.25 | > 75 | CCC[C@H]1c2cccc(CN3CCN(Cc4c(OC)cc(-c5cn(C)c(=O)c(C)c5C)cc4OC)CC34CC4)c2CCN1C(=O)/C(C#N)=C/C(C)(C)C (single isomer, unassigned) [Compound C100, (E/Z)-2-(5-((7-(2,6-dimethoxy-4-(1,4,5-trimethyl-6-oxo-1,6-dihydropyridin-3-yl)benzyl)-4,7-diazaspiro[2.5]octan-4-yl)methyl)-1-propyl-1,2,3,4-tetrahydroisoquinoline-2-carbonyl)-4,4-dimethylpent-2-enenitrile]
1.25 to 10 | > 75 | COc1cc(-c2cn(C)c(=O)c(C)c2C)cc(OC)c1CN1C[C@@H](C)N(Cc2cccc3c2CCN(C(=O)/C(C#N)=C/C(C)(C)C)C3C)C[C@H]1C (mixture of isomers) [Compound B115, (E/Z)-2-(5-(((2R,5R)-4-(2,6-dimethoxy-4-(1,4,5-trimethyl-6-oxo-1,6-dihydropyridin-3-yl)benzyl)-2,5-dimethylpiperazin-1-yl)methyl)-1-methyl-1,2,3,4-tetrahydroisoquinoline-2-carbonyl)-4,4-dimethylpent-2-enenitrile]
10 to 25 | 70 to 75 | CC[C@@H]1CN(Cc2c(OC)cc(-c3cn(C)c(=O)c(C)c3C)cc2OC)CCN1Cc1cccc2c1CCN(C(=O)/C(C#N)=C/C(C)(C)C)C2C (mixture of isomers) [Compound B139, (E/Z)-2-(5-(((R)-4-(2,6-dimethoxy-4-(1,4,5-trimethyl-6-oxo-1,6-dihydropyridin-3-yl)benzyl)-2-ethylpiperazin-1-yl)methyl)-1-methyl-1,2,3,4-tetrahydroisoquinoline-2-carbonyl)-4,4-dimethylpent-2-enenitrile]
10 to 25 | 40 to 70 | COc1cc(-c2cn(C)c(=O)c(C)c2C)cc(OC)c1C(=O)N1CCC(Oc2cccc3c2CCN(C(=O)/C(C#N)=C/c2cccc(Br)n2)C3C)CC1 (mixture of isomers) [Compound B88, (E/Z)-3-(6-bromopyridin-2-yl)-2-(5-((1-(2,6-dimethoxy-4-(1,4,5-trimethyl-6-oxo-1,6-dihydropyridin-3-yl)benzoyl)piperidin-4-yl)oxy)-1-methyl-1,2,3,4-tetrahydroisoquinoline-2-carbonyl)acrylonitrile]
– | 40 to 70 | COc1cc(-c2cn(C)c(=O)c(C)c2C)cc(OC)c1CN1CC(Cc2cccc3c2CCN(C(=O)/C(C#N)=C/C(C)(C)C)C3C)C1 (stereo not drawn) [Compound C49]
1.25 to 10 | > 75 | COc1cc(-c2cn(C)c(=O)c(C)c2C)cc(OC)c1CN1CCN(Cc2cccc3c2CCN(C(=O)/C(C#N)=C/C2CCOCC2)C3C)C2(CC2)C1 (mixture of isomers) [Compound B137, (E/Z)-2-(5-((7-(2,6-dimethoxy-4-(1,4,5-trimethyl-6-oxo-1,6-dihydropyridin-3-yl)benzyl)-4,7-diazaspiro[2.5]octan-4-yl)methyl)-1-methyl-1,2,3,4-tetrahydroisoquinoline-2-carbonyl)-3-(tetrahydro-2H-pyran-4-yl)acrylonitrile]
25 to 1000 | 40 to 70 | COc1cc(-c2cn(C)c(=O)c(C)c2C)ccc1OC1CCC(Cc2cccc3c2CCN(C(=O)/C(C#N)=C/C(C)(C)N2CCN(C4COC4)CC2)C3C)CC1 (stereo not drawn) [Compound C51]
1.25 to 10 | > 75 | COc1cc(-c2cn(C)c(=O)c(C)c2C)cc(OC)c1CN1CCN(Cc2ccc3c(c2)[C@@H](C)N(C(=O)/C(C#N)=C/C(C)(C)CO)CC3)C2(CC2)C1 (single isomer, unassigned) [Compound C41, (E/Z)-2-(7-((7-(2,6-dimethoxy-4-(1,4,5-trimethyl-6-oxo-1,6-dihydropyridin-3-yl)benzyl)-4,7-diazaspiro[2.5]octan-4-yl)methyl)-1-methyl-1,2,3,4-tetrahydroisoquinoline-2-carbonyl)-5-hydroxy-4,4-dimethylpent-2-enenitrile]
< 1.25 | > 75 | COc1cc(-c2cn(C)c(=O)c3[nH]ncc23)cc(OC)c1CN1CCN(Cc2ccc3c(c2)[C@@H](C)N(C(=O)/C(C#N)=C/C(C)(C)C)CC3)C2(CC2)C1 (single isomer, unassigned) [Compound C6, (E/Z)-2-(7-((7-(2,6-dimethoxy-4-(6-methyl-7-oxo-6,7-dihydro-1H-pyrazolo[3,4-c]pyridin-4-yl)benzyl)-4,7-diazaspiro[2.5]octan-4-yl)methyl)-1-methyl-1,2,3,4-tetrahydroisoquinoline-2-carbonyl)-4,4-dimethylpent-2-enenitrile]
25 to 1000 | > 75 | COc1cc(-c2cn(C)c(=O)c(C)c2C)ccc1OC1CCC(Cc2cccc3c2CCN(C(=O)C(C#N)=CC(C)(C)N2CCN(C4COC4)CC2)C3C(C)C)CC1 (single isomer, unassigned) [Compound C86]
< 1.25 | > 75 | COc1cc(-c2cn(C)c(=O)c(C)c2C)cc(OC)c1CN1CCN(Cc2cccc3c2CCN(C(=O)/C(C#N)=C/C(C)(C)CF)C3C(C)C)C2(CC2)C1 (mixture of isomers) [Compound C24, (E/Z)-2-(5-((7-(2,6-dimethoxy-4-(1,4,5-trimethyl-6-oxo-1,6-dihydropyridin-3-yl)benzyl)-4,7-diazaspiro[2.5]octan-4-yl)methyl)-1-isopropyl-1,2,3,4-tetrahydroisoquinoline-2-carbonyl)-5-fluoro-4,4-dimethylpent-2-enenitrile]
< 1.25 | > 75 | COc1cc(-c2cn(C)c(=O)c(C)c2C)cc(OC)c1CN1CCN(Cc2cccc3c2CCN(C(=O)/C(C#N)=C/C(C)(C)F)C3C)C2(CC2)C1 (mixture of isomers) [Compound B140, (E/Z)-2-[5-[[7-[[2,6-dimethoxy-4-(1,4,5-trimethyl-6-oxo-3-pyridyl)phenyl]methyl]-4,7-diazaspiro[2.5]octan-4-yl]methyl]-1-methyl-3,4-dihydro-1H-isoquinoline-2-carbonyl]-4-fluoro-4-methyl-pent-2-enenitrile]
< 1.25 | > 75 | COc1cc(-c2cn(C)c(=O)c(C)c2C)cc(OC)c1CN1CCN(Cc2ccc3c(c2)[C@@H](C)N(C(=O)/C(C#N)=C/C2(OC)CC2)CC3)C2(CC2)C1 (single isomer, unassigned) [Compound C37, (E/Z)-2-(7-((7-(2,6-dimethoxy-4-(1,4,5-trimethyl-6-oxo-1,6-dihydropyridin-3-yl)benzyl)-4,7-diazaspiro[2.5]octan-4-yl)methyl)-1-methyl-1,2,3,4-tetrahydroisoquinoline-2-carbonyl)-3-(1-methoxycyclopropyl)acrylonitrile]
25 to 1000 | 40 to 70 | COc1cc(-c2cn(C)c(=O)c(C)c2C)cc(OC)c1CN1CC(N(C)Cc2ccc3c(c2)[C@H](C)N(C(=O)/C(C#N)=C/C(C)(C)C)CC3)C1 (single isomer, unassigned) [Compound C70, (E/Z)-2-(7-(((1-(2,6-dimethoxy-4-(1,4,5-trimethyl-6-oxo-1,6-dihydropyridin-3-yl)benzyl)460zetidine-4-yl)(methyl)amino)methyl)-1-methyl-1,2,3,4-tetrahydroisoquinoline-2-carbonyl)-4,4-dimethylpent-2-enenitrile]
< 1.25 | > 75 | COc1cc(-c2cn(C)c(=O)c(C)c2C)cc(OC)c1CN1CCN(Cc2cccc3c2CCN(C(=O)/C(C#N)=C/C2(C(F)(F)F)CC2)C3C)C2(CC2)C1 (mixture of isomers) [Compound B153, (E/Z)-2-[5-[[7-[[2,6-dimethoxy-4-(1,4,5-trimethyl-6-oxo-3-pyridyl)phenyl]methyl]-4,7-diazaspiro[2.5]octan-4-yl]methyl]-1-methyl-3,4-dihydro-1H-isoquinoline-2-carbonyl]-3-[1-(trifluoromethyl)cyclopropyl]prop-2-enenitrile]
10 to 25 | 70 to 75 | COc1cc(-c2cn(C)c(=O)c(C)c2C)cc(OC)c1CN1CCN(Cc2ccc3c(c2)[C@H](C(C)C)N(C(=O)/C(C#N)=C/C(C)(C)C)CC3)C2(CC2)C1 (single isomer, unassigned) [Compound C87, (E/Z)-2-(7-((7-(2,6-dimethoxy-4-(1,4,5-trimethyl-6-oxo-1,6-dihydropyridin-3-yl)benzyl)-4,7-diazaspiro[2.5]octan-4-yl)methyl)-1-isopropyl-1,2,3,4-tetrahydroisoquinoline-2-carbonyl)-4,4-dimethylpent-2-enenitrile]
